Patent US20160272937A1, “METHODS OF GENERATING INTERMEDIATE MESODERM CELLS FROM HUMAN PLURIPOTENT STEM CELLS” (THE BRIGHAM AND WOMEN'S HOSPITAL, INC., priority 2013, published 2016)

Columns and labels:
[1] = test system: human pluripotent stem cells (hPSCs); assay: Mesendoderm induction: BRACHYURY immunofluorescence in hPSCs; assay type: cell-based
Procedure: For differentiation experiments, hESCs or hiPSCs can be grown on Geltrex, washed once with PBS and dissociated into single cells with Accutase ([…] Technologies). Cells are plated at a density of 4×10^4 cells/cm^2 onto Geltrex-coated plates in mTeSR1 medium supplemented with the ROCK inhibitor Y27632 10 μM (Stemgent). Cells are fed daily with mTeSR1 without Y27632 for 2-3 days until they reached 50% confluency. Mesendoderm differentiation-the media is changed to Advanced RPMI (A-RPMI, Invitrogen) supplemented with 1×L-glutamax and 1× penicillin/streptomycin and either CHIR99021 (CHIR, Stemgent), human Wnt3a (R&D systems), and/or human activin A (R&D systems) at the doses described. Definitive endoderm differentiation-cells are treated with […] for 24 hours, then […]+100 ng/mL of activin A for 2-3 days. Hepatic differentiation-cells at the definitive endoderm stage are treated with […]27 supplement (Invitrogen)+20 ng/mL BMP-4 (R&D systems)+10 ng/mL FGF2 (Invitrogen) for 5 days, then […]27+10 ng/mL HGF for 5 days, then HCM Hepatocyte Culture Medium (Lonza) supplemented with 20 ng/mL Oncostatin M and 10 ng/mL HGF (Peprotech) for 5 days. Pancreatic differentiation-cells at the definitive endoderm stage are treated with DMEM/F12+2% FBS (Hyclone)+50 ng/mL FGF7 (R&D systems) for 2 days, then high-glucose DMEM (Mediatech)+1% B27+2 μM retinoic acid (Sigma)+0.25 μM KAAD cyclopamine (EMD Millipore)+100 ng/mL recombinant human Noggin (R&D systems) for 4 days, then high-glucose DMEM+1% B27+100 ng/mL Noggin+300 nM indolactam V (Stemgent)+1 μM ALK5 inhibitor II (Axxora) for 4 days. Anterior foregut endoderm differentiation-cells at the definitive endoderm stage are treated with DMEM/F12+1×L-glu+1×B27+200 ng/mL Noggin+10 μM SB431542 (Stemgent) for 3 days. […] Immunofluorescence is visualized using an inverted fluorescence microscope (Nikon Eclipse Ti, Tokyo, Japan). Quantification is performed by counting a minimum of five random fields at 10× magnification. […]

[2] = test system: human pluripotent stem cells (hPSCs); assay: Quantitative RT-PCR gene expression in CHIR-treated hPSCs; assay type: cell-based
Procedure: Total RNA is harvested and isolated from cells using the RNeasy Mini Kit (Qiagen). 1 μg RNA is used for reverse transcription with the M-MLV Reverse Transcriptase system (Promega), or 500 ng RNA is used for High Capacity cDNA Reverse Transcription Kits (Applied Biosystems). RT-PCR reactions can be run in duplicate using cDNA (diluted 1:10), 300 or 400 nM forward and reverse primers, and iQ SYBR Green Supermix (Biorad) or iTAQ SYBR Green Supermix (Biorad). Quantitative RT-PCR is performed using the iQ5 Multicolor Real-Time PCR Detection System (Biorad). Samples can be run with two technical replicates to ensure precision and accuracy. β-actin can be used as a housekeeping gene. […] In parallel, the induction of the mesendoderm state was accompanied by the loss of pluripotency as reflected by a reduction of OCT4 and NANOG mRNA (FIG. 1D). […] As cells migrate through the primitive streak during development, they express SNAIL, downregulate E-cadherin expression, upregulate N-cadherin expression, and undergo an epithelial-mesenchymal transition (“EMT”). […] This was associated with EMT with waves of cells migrating away from the periphery of differentiating colonies between 36-48 hours of differentiation (FIG. 1G), and a switch in cadherin expression from E-cadherin to N-cadherin (FIG. 1H).

Cc1c[nH]c(-c2cnc(NCCNc3ccc(C#N)cn3)nc2-c2ccc(Cl)cc2Cl)n1 [CHIR99021]
cells expressing BRACHY ([1]; 5 μM, 24 hours): 98.7±1.3% | efficiency of BRACHYURY+MIXL1+ mesendoderm differentiation ([1]; summary statement): ~100% | BMP-4 transcript expression ([2]; CHIR for 24 or 48 hours, day 4, compared to DMSO-treated controls): significantly upregulated | OCT4 and NANOG mRNA ([2]; CHIR time course): reduction | SNAI1 expression ([2]; as early as 24 hours after treatment): upregulation | expression of primitive streak genes (BRACHY, MIXL1, EOMES, FOXA2, GSC) ([2]; within 24 hours of treatment, peak 36-48 hours, decreased by 72 hours): rapidly upregulated
